The source of these data is ChEMBL document CHEMBL1201862, “PubChem BioAssay data set” (2004).

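Results reflect a 48-hour exposure of cells in 96-well plates to compound at five concentrations. GI50 = concentration required for 50% inhibition of growth.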 Calls of active or inactive are those of the source. Rule as the data show it: active = GI50 up to about 1.1 µM and inactive = higher.

Among the test systems are 786-0; CAKI-1; CCRF-CEM; HCT-116; M14; MDA-N; MOLT-4; NCI-H226; PC-3; RPMI-8226; SF-295; SK-MEL-2; SK-OV-3; SNB-75; UACC-62; NCI-H460; NCI-H522; SK-MEL-28; HCC 2998.
Experiment in all cases: NCI-60 cell line screen, 48 h

In the case of `CNC(=O)C1OC(n2cnc3c(NCc4cccc(I)c4)nc(Cl)nc32)C(O)C1O` (stereo not given), the GI50 was 18.6 µM (inactive) in the test with 786-0; 19.3 µM (inactive) in the test on CAKI-1; 16.7 µM (inactive) with CCRF-CEM; 15.6 µM (inactive) in the test on HCT-116; 10.3 µM (inactive) in the test with M14; 20.7 µM (inactive) with MDA-N. The GI50 with MOLT-4 is 14.2 µM (inactive); with NCI-H226, 7.69 µM (inactive); in the test with PC-3, 11.9 µM (inactive); in the test with RPMI-8226, 18.9 µM (inactive); in the test on SF-295, 18.7 µM (inactive); in the test with SK-MEL-2 it was 14.7 µM (inactive). The GI50 in the test on SK-OV-3 is 17.2 µM (inactive); with SNB-75, 0.839 µM (active); in the test with UACC-62 it was 10.1 µM (inactive).

For `CC(C)C(/N=C/c1ccccc1O)C(=O)O` (stereo not given), the GI50 in the test on 786-0, in the test with CAKI-1, with CCRF-CEM, in the test with HCT-116, in the test on M14 and with MDA-N was > 100 µM (inactive) throughout. Further, the GI50 with MOLT-4 is > 100 µM (inactive); with NCI-H226 it was > 100 µM (inactive); in the test with NCI-H460, > 100 µM (inactive); in the test on NCI-H522, > 100 µM (inactive); in the test on PC-3 it was 87.7 µM (inactive); in the test on RPMI-8226 it was > 100 µM (inactive). Besides, the GI50 was > 100 µM (inactive) in the test on SF-295; > 100 µM (inactive) in the test on SK-MEL-28; 20.6 µM (inactive) with SK-MEL-2; > 100 µM (inactive) with SK-OV-3; > 100 µM (inactive) in the test with UACC-62.

Turning to `CCNCCNC(=O)c1ccc(I)cc1`, the GI50 in the test on 786-0, in the test on CAKI-1, in the test on CCRF-CEM, in the test with HCC 2998, in the test with M14 and in the test with MOLT-4 was > 100 µM (inactive) throughout. Besides, the GI50 was 6.22 µM (inactive) in the test with NCI-H226; > 100 µM (inactive) in the test on NCI-H460; > 100 µM (inactive) in the test with PC-3; > 100 µM (inactive) with RPMI-8226; > 100 µM (inactive) in the test on SK-MEL-28; > 100 µM (inactive) with SK-OV-3. In addition, the GI50 was 34.4 µM (inactive) in the test on SNB-75 and > 100 µM (inactive) in the test with UACC-62.

Consider `CCOc1cc(C(c2c(O)c3ccccc3oc2=O)c2c(O)c3ccccc3oc2=O)ccc1OC`, for which the GI50 in the test with 786-0 is 18.3 µM (inactive); in the test with CAKI-1, 16.4 µM (inactive); in the test on CCRF-CEM, 22.1 µM (inactive); with HCT-116, 19.5 µM (inactive); in the test on M14 it was 19.1 µM (inactive); with MDA-N it was 18.1 µM (inactive). In addition, the GI50 with MOLT-4 is 35.9 µM (inactive); in the test with NCI-H226 it was 23.3 µM (inactive); with NCI-H522, 18.3 µM (inactive); in the test with PC-3, 17.3 µM (inactive); with RPMI-8226 it was 22.3 µM (inactive); in the test with SF-295, 19.4 µM (inactive). Besides, the GI50 with SK-MEL-28 is 28.1 µM (inactive); in the test with SK-MEL-2 it was 20.6 µM (inactive); in the test on SK-OV-3, 16.7 µM (inactive); in the test with UACC-62, 18.5 µM (inactive).

For `COc1ccc(-n2nnnc2C2(Nc3ccccc3)CCN(Cc3ccccc3)CC2)cc1`, the GI50 in the test with 786-0 is 13.6 µM (inactive); in the test on CCRF-CEM it was 18.7 µM (inactive); with HCC 2998, 3.93 µM (inactive); in the test on HCT-116, 7.8 µM (inactive); in the test with M14 it was 14.2 µM (inactive); in the test with MOLT-4, 5.04 µM (inactive). The GI50 in the test with NCI-H226 is 25.2 µM (inactive); in the test on NCI-H460 it was 11.2 µM (inactive); with RPMI-8226, 9.77 µM (inactive); in the test on SF-295 it was 13.6 µM (inactive); in the test with SK-MEL-28, 13.5 µM (inactive); with SK-OV-3, 13.6 µM (inactive). The GI50 was 12.2 µM (inactive) with SNB-75 and 10.5 µM (inactive) in the test on UACC-62.

With `N#Cc1ccc(N2CCOCC2)cc1`, the GI50 in the test on 786-0 is > 100 µM (inactive); in the test on CAKI-1, > 100 µM (inactive); in the test with CCRF-CEM it was 0.975 µM (active); in the test on HCT-116, > 100 µM (inactive); in the test on M14 it was > 100 µM (inactive); in the test with MDA-N it was > 100 µM (inactive). Also, the GI50 in the test on MOLT-4 was > 100 µM (inactive); in the test on NCI-H460 it was > 100 µM (inactive); with NCI-H522, 34.2 µM (inactive); with PC-3, > 100 µM (inactive); in the test with SF-295, > 100 µM (inactive); in the test with SK-MEL-28 it was > 100 µM (inactive). Further, the GI50 in the test with SK-MEL-2, in the test on SK-OV-3, with SNB-75 and with UACC-62 was > 100 µM (inactive) each time.

Turning to `Cc1ccc(NC2=CC(=O)C(NO)c3ccccc32)cc1` (stereo not given), the GI50 in the test on 786-0 was 5.16 µM (inactive); in the test with CAKI-1, 2.5 µM (inactive); with HCC 2998, 7.26 µM (inactive); with HCT-116, 2.47 µM (inactive); with M14, 2.94 µM (inactive); in the test on MDA-N, 2.61 µM (inactive). Further, the GI50 in the test on MOLT-4 was 2.74 µM (inactive); with NCI-H226, 19.9 µM (inactive); in the test on NCI-H460, 3.22 µM (inactive); in the test with SF-295 it was 3.98 µM (inactive); in the test on SK-MEL-28, 8.13 µM (inactive); in the test on SK-MEL-2, 2.23 µM (inactive). Moreover, the GI50 with SK-OV-3 is 10.8 µM (inactive); in the test on SNB-75, 3.37 µM (inactive); in the test with UACC-62, 1.51 µM (inactive).

Regarding `CC[P+](C)(Cc1ccccc1)c1ccccc1.O=C(OC(C(=O)[O-])C(OC(=O)c1ccccc1)C(=O)O)c1ccccc1` (stereo not given), the GI50 in the test with 786-0, in the test on CAKI-1, in the test with HCC 2998, with M14, in the test with RPMI-8226 and in the test with SF-295 was > 100 µM (inactive) each time. Besides, the GI50 with SK-MEL-28, in the test with SK-MEL-2, in the test on SK-OV-3, with SNB-75 and in the test on UACC-62 was > 100 µM (inactive) each time.

With `C[C@@]1(O)C2CC3CC1(c1ccccc1)CC(/C3=N/O)/C2=N\O` (stereo not given in full), the GI50 in the test with 786-0, with CAKI-1, with CCRF-CEM, in the test on HCC 2998, with HCT-116 and in the test with M14 was > 100 µM (inactive) each time. Besides, the GI50 in the test with MOLT-4, with NCI-H226, in the test with NCI-H460, in the test with NCI-H522, in the test with PC-3 and in the test on SF-295 was > 100 µM (inactive) each time. Besides, the GI50 in the test on SK-MEL-28, in the test on SK-MEL-2, in the test on SK-OV-3, in the test with SNB-75 and with UACC-62 was > 100 µM (inactive) in each case.

Take `CN(Cc1cnc2nc(N)nc(N)c2n1)c1ccc(C(=O)NC23CC4CC(CC(C4)C2)C3)cc1`: the GI50 with 786-0 is 7.24 µM (inactive); with CAKI-1 it was 12 µM (inactive); in the test on CCRF-CEM, 3.95 µM (inactive); in the test with HCT-116, 4.01 µM (inactive); in the test with M14, 4.14 µM (inactive); with MOLT-4, 6.68 µM (inactive). In addition, the GI50 is 13.1 µM (inactive) in the test with NCI-H226; 5.96 µM (inactive) in the test on NCI-H460; 4.58 µM (inactive) with PC-3; 22 µM (inactive) in the test with RPMI-8226; 4.69 µM (inactive) with SF-295; 11.5 µM (inactive) in the test with SK-MEL-2. For the same compound, the values for the GI50 with SK-OV-3, in the test on SNB-75 and in the test with UACC-62 were 15.2 µM (inactive), 21.5 µM (inactive) and 3.66 µM (inactive), respectively.

As for `COC(=O)C1=C(C)NC(C)=C(C(=O)OC)C1c1nc2sccn2c1[N+](=O)[O-]`, the GI50 with 786-0, with CAKI-1, with CCRF-CEM, with HCC 2998, in the test with HCT-116 and in the test on M14 was > 100 µM (inactive) each time. Further, the GI50 in the test on MOLT-4, with NCI-H226, in the test with NCI-H460, in the test with PC-3, in the test on RPMI-8226 and in the test with SF-295 was > 100 µM (inactive) each time. The GI50 in the test with SK-MEL-28, in the test on SK-MEL-2, in the test on SK-OV-3, in the test with SNB-75 and in the test on UACC-62 was > 100 µM (inactive) each time.

Consider `C/C(=C\CSCC(N)C(=O)O)CC/C=C(\C)CNc1ccccc1` (stereo not given), for which the GI50 in the test with 786-0, with CAKI-1, in the test with HCC 2998, with HCT-116, in the test with M14 and in the test with MOLT-4 was > 100 µM (inactive) each time. The GI50 is > 100 µM (inactive) in the test with NCI-H226; > 100 µM (inactive) in the test on NCI-H460; 49 µM (inactive) with NCI-H522; > 100 µM (inactive) in the test on PC-3; 0.421 µM (active) in the test on RPMI-8226; > 100 µM (inactive) in the test with SF-295. Further, the GI50 in the test with SK-MEL-28, with SK-MEL-2, in the test on SK-OV-3, in the test with SNB-75 and in the test on UACC-62 was > 100 µM (inactive) throughout.

For `O=c1[nH]c(=O)n([C@@H]2O[C@H](CO)[C@@H](O)[C@@H]2F)cc1I` [FIALURIDINE], the GI50 with 786-0 is > 100 µM (inactive); in the test with CAKI-1 it was > 100 µM (inactive); in the test on CCRF-CEM it was 4.8 µM (inactive); in the test with HCC 2998, > 100 µM (inactive); in the test on HCT-116, > 100 µM (inactive); in the test on M14, 77.6 µM (inactive). The GI50 with MDA-N is > 100 µM (inactive); in the test on MOLT-4, 56 µM (inactive); with NCI-H226, > 100 µM (inactive); in the test on NCI-H460, 24 µM (inactive); in the test with NCI-H522 it was > 100 µM (inactive); in the test on SF-295, > 100 µM (inactive). The GI50 in the test on SK-MEL-28, in the test with SK-OV-3, in the test on SNB-75 and in the test with UACC-62 was > 100 µM (inactive) throughout.
